# Structures can show the parent of a compound that is named as a salt. The source made the active and inactive calls.
# Assays:
# [1] = biological target: T1, Corticotropin-releasing factor receptor 2/Corticotropin-releasing factor-binding protein (Homo sapiens, UniProt P24387+Q13324); assay: Dose Response confirmation of uHTS hits for small molecule antagonists of the CRF-binding protein and CRF-R2 receptor complex.; assay type: functional; conditions: read-out: IC50_Mean
# T1 sequence (Q13324 whole entry): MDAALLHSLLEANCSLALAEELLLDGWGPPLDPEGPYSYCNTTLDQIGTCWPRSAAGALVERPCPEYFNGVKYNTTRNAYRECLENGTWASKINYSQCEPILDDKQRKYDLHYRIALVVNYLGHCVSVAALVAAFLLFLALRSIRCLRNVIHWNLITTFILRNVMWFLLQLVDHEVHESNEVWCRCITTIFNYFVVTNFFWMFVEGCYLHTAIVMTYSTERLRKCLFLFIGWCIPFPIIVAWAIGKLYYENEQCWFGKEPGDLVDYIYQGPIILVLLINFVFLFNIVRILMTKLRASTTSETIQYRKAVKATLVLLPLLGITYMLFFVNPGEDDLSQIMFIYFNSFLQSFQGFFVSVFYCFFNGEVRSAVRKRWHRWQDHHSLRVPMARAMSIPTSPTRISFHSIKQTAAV
# T1 sequence (P24387 whole entry): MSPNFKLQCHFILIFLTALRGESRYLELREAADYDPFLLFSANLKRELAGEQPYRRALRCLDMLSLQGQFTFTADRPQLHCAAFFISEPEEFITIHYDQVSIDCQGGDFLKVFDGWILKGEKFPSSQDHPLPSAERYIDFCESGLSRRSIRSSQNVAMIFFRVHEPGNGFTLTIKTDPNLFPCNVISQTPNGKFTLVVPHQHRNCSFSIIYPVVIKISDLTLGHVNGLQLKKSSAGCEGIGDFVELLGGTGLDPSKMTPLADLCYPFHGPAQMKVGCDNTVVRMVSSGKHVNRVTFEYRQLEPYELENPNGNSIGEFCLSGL
# [2] = biological target: T1, Corticotropin-releasing factor receptor 2/Corticotropin-releasing factor-binding protein; assay: activators of CRF receptor 2 with binding protein – uHTS hits, confirmation (AID 602473); assay type: functional; conditions: read-out: EC50_Mean
# Genome polyprotein = Genome polyprotein (dengue virus type 2, UniProt P29990); assay: flavivirus cap methylation enzyme inhibition – biochemical, confirmation dose response, primary screen (AID 588689); assay type: functional
# Genome polyprotein, sequence (P29990 2492-3391 limits assumed): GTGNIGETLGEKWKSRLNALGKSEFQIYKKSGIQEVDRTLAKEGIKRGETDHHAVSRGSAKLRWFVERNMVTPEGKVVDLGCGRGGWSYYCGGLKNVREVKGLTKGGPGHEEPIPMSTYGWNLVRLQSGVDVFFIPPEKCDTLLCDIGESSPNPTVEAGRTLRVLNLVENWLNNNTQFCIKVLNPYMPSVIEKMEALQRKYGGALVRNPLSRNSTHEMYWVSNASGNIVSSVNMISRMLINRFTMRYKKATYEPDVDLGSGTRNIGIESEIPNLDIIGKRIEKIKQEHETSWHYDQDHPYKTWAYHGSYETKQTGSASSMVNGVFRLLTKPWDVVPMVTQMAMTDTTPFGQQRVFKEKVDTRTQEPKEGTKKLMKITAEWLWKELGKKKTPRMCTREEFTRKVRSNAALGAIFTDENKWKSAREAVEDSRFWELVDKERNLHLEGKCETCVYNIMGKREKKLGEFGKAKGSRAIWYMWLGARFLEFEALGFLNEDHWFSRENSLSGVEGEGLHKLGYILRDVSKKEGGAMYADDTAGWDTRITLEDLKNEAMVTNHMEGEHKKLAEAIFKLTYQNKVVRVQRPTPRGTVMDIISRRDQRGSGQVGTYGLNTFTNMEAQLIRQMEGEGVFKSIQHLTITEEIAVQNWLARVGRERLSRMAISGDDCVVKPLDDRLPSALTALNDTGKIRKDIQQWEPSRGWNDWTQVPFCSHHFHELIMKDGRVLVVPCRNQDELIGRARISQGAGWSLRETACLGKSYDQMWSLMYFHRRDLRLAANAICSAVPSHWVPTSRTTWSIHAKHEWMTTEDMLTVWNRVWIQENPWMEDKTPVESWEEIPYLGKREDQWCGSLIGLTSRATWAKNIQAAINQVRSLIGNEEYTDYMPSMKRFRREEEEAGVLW
# [3] = biological target: T2, Polyadenylate-binding protein 1 (Homo sapiens, UniProt P11940); assay: MLLE domain peptide-binding blockers, IC50 – biochemical, fluorescence polarization, FITC-PAM2 peptide, dose response (AID 602259); assay type: functional; conditions: read-out: IC50_Mean
# T2 sequence (P11940 whole entry, the tested form may be a part): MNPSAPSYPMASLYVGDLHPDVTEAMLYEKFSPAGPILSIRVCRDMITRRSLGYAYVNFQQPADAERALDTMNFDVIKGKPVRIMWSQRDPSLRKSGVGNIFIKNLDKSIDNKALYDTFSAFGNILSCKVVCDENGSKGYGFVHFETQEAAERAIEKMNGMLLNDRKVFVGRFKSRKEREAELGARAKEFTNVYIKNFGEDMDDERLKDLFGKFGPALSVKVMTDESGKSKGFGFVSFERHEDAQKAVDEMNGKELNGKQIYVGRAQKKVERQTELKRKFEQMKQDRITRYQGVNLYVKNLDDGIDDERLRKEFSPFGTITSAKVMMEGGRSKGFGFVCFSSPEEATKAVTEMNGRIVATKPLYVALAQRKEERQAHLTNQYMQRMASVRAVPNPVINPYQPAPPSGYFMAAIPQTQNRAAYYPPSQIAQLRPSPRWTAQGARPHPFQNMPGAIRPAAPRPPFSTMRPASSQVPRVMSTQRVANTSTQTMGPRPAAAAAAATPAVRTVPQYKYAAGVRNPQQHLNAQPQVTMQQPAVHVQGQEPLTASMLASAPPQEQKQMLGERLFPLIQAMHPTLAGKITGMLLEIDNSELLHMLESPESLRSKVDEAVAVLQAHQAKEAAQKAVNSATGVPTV
# [4] = biological target: T2, Polyadenylate-binding protein 1; assay: MLLE binding blockers, Cy5 peptide tracer – biochemical, fluorescence polarization, Cy5-PAM2 peptide, secondary, miRNA deadenylation inhibitor project, dose response (AID 602260); assay type: functional; conditions: read-out: IC50_Mean
# [5] = biological target: FAD-linked sulfhydryl oxidase ALR (Homo sapiens, UniProt P55789); assay: ALR-catalysed DTT oxidation blockers – biochemical, H2O2 detection, luminescence, cherry-pick, dose response (AID 493248)
# FAD-linked sulfhydryl oxidase ALR, sequence (P55789 whole entry): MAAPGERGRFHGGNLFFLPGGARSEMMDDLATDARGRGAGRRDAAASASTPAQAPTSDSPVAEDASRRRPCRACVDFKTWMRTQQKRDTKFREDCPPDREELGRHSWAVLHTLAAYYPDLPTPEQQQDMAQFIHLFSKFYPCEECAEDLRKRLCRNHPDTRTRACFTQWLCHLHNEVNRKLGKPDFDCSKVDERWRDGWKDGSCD
# [6] = viability of uninfected HEp-2 cells – cell-based, HTS, cytotoxicity control for RSV inhibitor project, dose response (AID 2410); assay type: functional; conditions: human respiratory syncytial virus
# [7] = fluconazole-exposed Candida albicans growth modulators – fluorescence, retest, confirmation (AID 2467); assay type: functional, cell-based
# [8] = NIH-3T3 fibroblast cytotoxicity, dose response, cytotoxicity control, cell-based, fluorescence, Alamar Blue, secondary assay (AID 2327); assay type: functional;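 note: NIH-3T3 mouse fibroblasts cultured with fluconazole at 8 µg/mL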
# [9] = Luminescence Cell-Based Dose Retest to Confirm Inhibitors of Cancer Stem Cells. [Related pubchem assays (depositor defined):AID2717, AID2721]; assay type: functional; conditions: Homo sapiens
# Protein RecA = biological target: T3, Protein RecA (Mycobacterium tuberculosis, UniProt P9WHJ3); assay: Fluorescence Cell-Free Homogeneous Dose Retest to Identify Inhibitors of RecA-Intein Splicing Activity. [Related pubchem assays (depositor defined):AID2097, AID2223, AID489010, AID492950]; assay type: functional
# T3 sequence (P9WHJ3 whole entry): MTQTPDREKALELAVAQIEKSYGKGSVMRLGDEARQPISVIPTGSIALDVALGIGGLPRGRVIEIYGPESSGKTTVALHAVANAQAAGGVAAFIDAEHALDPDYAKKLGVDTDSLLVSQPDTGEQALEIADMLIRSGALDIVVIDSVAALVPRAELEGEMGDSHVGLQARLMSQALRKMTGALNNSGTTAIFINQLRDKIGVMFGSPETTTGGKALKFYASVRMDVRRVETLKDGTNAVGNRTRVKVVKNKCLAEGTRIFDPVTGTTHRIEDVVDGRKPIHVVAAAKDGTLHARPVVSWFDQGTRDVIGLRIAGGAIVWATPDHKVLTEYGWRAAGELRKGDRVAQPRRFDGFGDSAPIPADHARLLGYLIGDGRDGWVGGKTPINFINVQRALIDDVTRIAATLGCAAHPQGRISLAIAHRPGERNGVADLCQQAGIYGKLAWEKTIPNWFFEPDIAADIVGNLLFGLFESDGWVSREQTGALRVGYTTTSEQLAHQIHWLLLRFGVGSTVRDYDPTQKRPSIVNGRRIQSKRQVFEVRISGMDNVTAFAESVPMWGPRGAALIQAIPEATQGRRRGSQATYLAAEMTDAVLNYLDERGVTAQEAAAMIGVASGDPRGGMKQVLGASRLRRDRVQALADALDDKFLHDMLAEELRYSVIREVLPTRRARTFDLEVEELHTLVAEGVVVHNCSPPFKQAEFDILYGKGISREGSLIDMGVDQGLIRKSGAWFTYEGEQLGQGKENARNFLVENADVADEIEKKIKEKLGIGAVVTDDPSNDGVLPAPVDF
# [10] = biological target: T4, Replicative DNA helicase DnaB (Mycobacterium tuberculosis, UniProt P9WMR3); assay: DnaB intein splicing inhibitors, dose response, biochemical, cell-free fluorescence (AID 449749); assay type: functional
# T4 sequence (P9WMR3 whole entry): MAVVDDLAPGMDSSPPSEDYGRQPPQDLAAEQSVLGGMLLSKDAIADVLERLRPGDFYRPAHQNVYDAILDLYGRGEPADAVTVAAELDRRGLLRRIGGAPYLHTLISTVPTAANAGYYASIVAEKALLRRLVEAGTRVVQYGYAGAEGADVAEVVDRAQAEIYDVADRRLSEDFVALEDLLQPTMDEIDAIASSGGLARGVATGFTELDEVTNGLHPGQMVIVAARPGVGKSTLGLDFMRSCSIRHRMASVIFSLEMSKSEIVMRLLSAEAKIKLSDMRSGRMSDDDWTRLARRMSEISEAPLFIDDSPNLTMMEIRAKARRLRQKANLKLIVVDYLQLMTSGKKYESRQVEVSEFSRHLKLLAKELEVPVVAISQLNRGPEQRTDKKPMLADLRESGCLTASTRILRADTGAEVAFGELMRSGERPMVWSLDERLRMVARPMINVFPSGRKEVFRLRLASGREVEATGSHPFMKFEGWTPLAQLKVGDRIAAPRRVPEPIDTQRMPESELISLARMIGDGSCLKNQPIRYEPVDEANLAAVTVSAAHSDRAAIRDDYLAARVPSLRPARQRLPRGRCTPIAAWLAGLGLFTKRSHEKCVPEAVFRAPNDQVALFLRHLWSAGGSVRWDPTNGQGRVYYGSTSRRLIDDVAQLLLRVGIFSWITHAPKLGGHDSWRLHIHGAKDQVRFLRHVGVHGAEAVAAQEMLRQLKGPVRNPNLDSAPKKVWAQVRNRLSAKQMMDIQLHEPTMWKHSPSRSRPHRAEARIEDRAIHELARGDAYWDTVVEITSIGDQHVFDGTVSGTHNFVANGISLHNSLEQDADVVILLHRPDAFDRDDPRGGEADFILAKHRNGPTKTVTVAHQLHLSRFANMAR
# [11] = test system: Streptococcus sp. 'group A'; assay: Streptococcus pyogenes SK(-)GAS viability under kanamycin – luminescence, BacTiterGlo, confirmation, counter-screen for streptokinase expression inhibitor project, dose response (AID 1900); assay type: functional, organism-based
# Streptokinase A = biological target: T5, Streptokinase A (Streptococcus pyogenes serotype M1, UniProt P10520); assay: viability-normalized secreted streptokinase activity reduction – plasminogen activation absorbance, OD405, dose response (AID 1914); assay type: functional, Streptococcus pyogenes M1 GAS;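 note: secreted streptokinase activity via plasminogen activation per viability signal from cell pellet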
# T5 sequence (P10520 whole entry): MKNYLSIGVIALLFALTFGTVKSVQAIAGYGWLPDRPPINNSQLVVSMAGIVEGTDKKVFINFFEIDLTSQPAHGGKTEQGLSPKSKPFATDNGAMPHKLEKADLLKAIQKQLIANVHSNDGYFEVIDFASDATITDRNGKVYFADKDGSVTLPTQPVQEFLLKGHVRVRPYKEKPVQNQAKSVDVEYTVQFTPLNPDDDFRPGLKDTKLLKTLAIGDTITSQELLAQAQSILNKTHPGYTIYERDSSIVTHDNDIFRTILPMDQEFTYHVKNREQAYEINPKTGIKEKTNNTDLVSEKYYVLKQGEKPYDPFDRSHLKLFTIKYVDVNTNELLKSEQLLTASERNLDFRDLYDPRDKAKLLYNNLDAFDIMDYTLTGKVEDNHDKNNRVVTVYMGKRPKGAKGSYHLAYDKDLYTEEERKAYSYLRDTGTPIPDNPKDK
# Streptococcus = assay: GAS UMAA2166 growth inhibition – luminescence, BacTiterGlo, counter-screen for streptokinase expression inhibitor project, dose response (AID 1915); assay type: functional, organism-based;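 note: potency for reduction of bacterial viability or growth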
smiles,measurement,setting,value
NC(=O)c1ccc2nc(-c3ccccc3)c(-c3ccccc3)nc2c1,IC50,[1],> 47.1 µM (inactive)
same,EC50,[2],> 53 µM (inactive)
Cn1nc([N+](=O)[O-])c(C(C#N)c2nc3ccccc3n2C)c(Cl)c1=O (stereo unspecified),IC50,Genome polyprotein,16.7 µM (active)
same,IC50,[3],30.8 µM (inactive)
same,IC50,[4],> 66 µM (inactive)
COc1ccc(CC(=O)ONC(=N)c2cccc([N+](=O)[O-])c2)cc1,IC50,[1],> 47.1 µM (inactive)
same,EC50,[2],> 53 µM (inactive)
Cc1cccc(/C=N/n2c(S)nnc2-c2ccccn2)c1,AC50,[5],67.5 µM (active)
C/C(=N\NC(=O)C1CC1)c1ccc(OC(F)F)cc1OC(F)F,CC50,[6],30.8 µM (active)
CCOC(=O)c1c(C)[nH]c(C(=O)COC(=O)c2ccccc2NC(=O)c2ccco2)c1C,CC50,[6],> 50 µM (active)
CC(C)c1ccc(/C=C2\C(=N)N3N=C(CC(=O)N4CCCCC4)SC3=NC2=O)cc1,AC50,[5],5.61 µM (active)
N#C/C(=C(/O)COc1ccc(Cl)cc1)c1nc2ccccc2s1,IC50,[1],< 0.368 µM (active)
same,EC50,[7],0.191 µM (active)
same,EC50,[8],93.5 µM (active)
same,EC50,[2],> 53 µM (inactive)
COc1ccc2sc(-c3ccc(SC)cc3)c(C#CCO)c2c1,AC50,[9],9.22 µM (active)
CCOC(=O)Cn1c2c(c(-c3ccccc3OC)cc1=O)CCCC2,IC50,[1],> 47.1 µM (inactive)
same,EC50,[2],> 53 µM (inactive)
Cc1occc1C(=O)N/N=C/C(Br)=C\c1ccccc1,CC50,[6],22.4 µM (active)
COc1c2c(c(OC)c3ccccc13)[C@@]1(OC2)O[C@H](CCO)C[C@H](O)[C@H]1O,IC50,[1],> 47.1 µM (inactive)
same,EC50,[2],> 53 µM (inactive)
NC(=O)c1ccc(NC(=O)COC(=O)c2c3c(nc4ccccc24)/C(=C\c2cccs2)CCC3)cc1,AC50,[9],10.4 µM (active)
CCN(CC)c1ccc(CN(C(=O)c2cc(OC)c(OC)c(OC)c2)C2CCS(=O)(=O)C2)cc1 (stereo unspecified),AC50,[5],9.07 µM (active)
CCCCNC(=O)c1cn(CC)c2ccc(S(=O)(=O)N3CCCCCC3)cc2c1=O,IC50,[1],> 47.1 µM (inactive)
same,EC50,[2],> 53 µM (inactive)
CC1=NN(c2ccccc2)C(=O)/C1=C/c1ccc(Cl)cc1,IC50,Genome polyprotein,38.6 µM (active)
same,EC50,Protein RecA,1.35 µM (active)
same,AC50,[10],2.15 µM (active)
CCOc1ccc(S(=O)(=O)Nc2cccnc2)cc1,IC50,[1],> 47.1 µM (inactive)
same,EC50,[2],> 53 µM (inactive)
CCc1nc(SCC(=O)Nc2ccccc2OC)c2c(C)c(C)sc2n1,EC50,[11],8.64 µM (active)
same,EC50,Streptokinase A,> 150 µM (not active)
same,EC50,Streptococcus,> 150 µM (not active)
same,CC50,[6],26 µM (active)
CCOC(=O)c1c(-c2cccc(Cl)c2)n[nH]c1N1C(=O)Nc2ccccc2N1O,IC50,[1],> 47.1 µM (inactive)
same,EC50,[2],> 53 µM (inactive)
COC(=O)CCC(=O)OC1(C)C(=O)C2=CN(Cc3ccccc3)C(c3ccc(OC)cc3)=CC2=C(Br)C1=O (stereo unspecified),IC50,Genome polyprotein,39.1 µM (active)
Cc1ccc(S(=O)(=O)Nc2cc(C(=O)Nc3cc(C)cc(C)c3)ccc2Cl)cc1,IC50,[1],> 47.1 µM (inactive)
same,EC50,[2],> 53 µM (inactive)
O=C(Cn1c(=O)sc2ccccc21)Nc1nc2c(s1)CCCC2,CC50,[6],> 50 µM (active)
CN(CCOc1ccc(CC2SC(=O)NC2=O)cc1)c1ccccn1 (stereo unspecified) [ROSIGLITAZONE MALEATE],IC50,[1],> 47.1 µM (inactive)
same,EC50,[2],> 53 µM (inactive)
COc1ccc2c([N+](=O)[O-])c(Cl)[nH]c2c1,IC50,Genome polyprotein,> 100 µM (active)
Cn1ccc(/C=N/NC2=NC(=O)CS2)n1,CC50,[6],24.5 µM (active)
CN(C)c1c([N+](=O)[O-])cc2[nH]c(O)nc2c1[N+](=O)[O-],CC50,[6],24.7 µM (active)
COc1cc(/C=C/c2noc(-c3ccccc3O)n2)ccc1OC(C)=O,AC50,[9],3.44 µM (active)

# Reference: ChEMBL document CHEMBL1201862, “PubChem BioAssay data set” (2004)
